“Also recorded” adds a separate entry of the source. Where two headings read alike, the source gives them in different places.
Key:
[1] = molecular target: T1, hCAR/SRC-1 interaction (Homo sapiens, UniProt Q14994); test: FRET ligand sensing assay, hCAR LBD with SRC-1 LXXLL peptide; format: biochemical; conditions: SRC-1 peptide amino acids 676 to 700
T1 construct: or 103-348 of hCAR; made in house; host or cells: E. coli BL21(DE3), pRSETa
T1 sequence (Q14994 103-348 isoform Q14994-2): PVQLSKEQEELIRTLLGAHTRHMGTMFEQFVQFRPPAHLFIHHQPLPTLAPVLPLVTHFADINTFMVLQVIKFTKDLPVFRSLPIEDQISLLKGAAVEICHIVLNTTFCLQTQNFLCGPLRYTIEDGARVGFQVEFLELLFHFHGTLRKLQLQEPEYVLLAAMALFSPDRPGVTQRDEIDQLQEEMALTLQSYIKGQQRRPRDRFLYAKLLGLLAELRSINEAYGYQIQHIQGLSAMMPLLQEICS
Method: The mCAR and hCAR LBD were each expressed in E. coli strain BL21(DE3) as a polyhistidine-tagged fusion protein. […] Cells were lysed by passing 3 times through an APV Rannie MINI-lab homogenizer and cell debris was removed by centrifugation (30 minutes, 20,000 g, 4° C.). After adjusting the imidazole concentration to 50 mM, the lysate was loaded onto a column packed with Sepharose [Ni^++ charged] Chelation resin (Pharmacia) and pre-equilibrated with TBS pH 8.0/50 mM imidazole. […] The recombinant protein was eluted with a gradient from 50 to 500 mM imidazole. Column peak fractions were pooled immediately and diluted 5-7 fold with 25 mM Tris pH 8.0, containing 5% 1,2-propanediol, 0.5 mM EDTA and 5 mM DTT. The diluted protein sample was then loaded onto a column packed with Poros HQ resin (PerSeptive Biosystems) and eluted with a gradient from 0-500 mM NaCl. Peak fractions were pooled and concentrated using Centri-prep 10K (Amicon) and subjected to size exclusion, using a column packed with Superdex-75 resin (Pharmacia) pre-equilibrated with TBS, pH 8.0, containing 5% 1,2-propanediol, 0.5 mM EDTA and 5 mM DTT.
The purified CAR LBDs were desalted/buffer exchanged using PD-10 gel filtration columns into PBS [100 mM NaPhosphate, pH 7.2, 150 mM NaCl]. […]
Fluorescence resonance energy transfer (FRET) ligand sensing assay. […]

[2] = molecular target: T2, hCAR LBD (Homo sapiens, UniProt Q14994); test: Scintillation proximity binding assay with [3H]clotrimazole; conditions: 10 nM [3H]clotrimazole, 10 μM competitor
T2 construct: or 103-348 of hCAR; made in house; host or cells: E. coli BL21(DE3), pRSETa
T2 sequence (Q14994 103-348 isoform Q14994-2): T1 sequence (Q14994 103-348 isoform Q14994-2)
Method: Scintillation proximity binding assay. Streptavidin polyvinyltoluene SPA beads (Amersham Pharmacia Biotech) were resuspended in assay buffer (50 mM Tris, 50 mM KCl, 1 mM CHAPS, 0.1 mg/ml BSA, 10 mM DTT). Biotinylated hCAR LBD was added to a final concentration of 50 nM. The amount of biotinylated receptor can be varied to account for variations in the extent of biotinylation and/or the observed S/N ratio for different batches of receptor. […] The receptor/bead mixture was allowed to incubate at room temperature for 15 min with gentle agitation. Uncoupled receptor was removed by centrifuging the receptor/bead mixture at 2500 rpm for 10 min and pouring off the supernatant. Receptor-coupled beads were resuspended in assay buffer and a second wash performed. All experiments were run in Costar 96-well SPA plates using an assay volume of 100 μl.

[3] = molecular target: T3, human CAR (hCAR) (Homo sapiens, UniProt Q14994); conditions: for EC50: read-out: EC50 values for activation/deactivation of CAR, HCAR, transfected CV-1 cells, 0.0001 μM to 10 μM in half-log steps, EC50 given only for ≧ 2-fold activation or deactivation relative to basal activity
T3 sequence (Q14994 1-348 isoform Q14994-2): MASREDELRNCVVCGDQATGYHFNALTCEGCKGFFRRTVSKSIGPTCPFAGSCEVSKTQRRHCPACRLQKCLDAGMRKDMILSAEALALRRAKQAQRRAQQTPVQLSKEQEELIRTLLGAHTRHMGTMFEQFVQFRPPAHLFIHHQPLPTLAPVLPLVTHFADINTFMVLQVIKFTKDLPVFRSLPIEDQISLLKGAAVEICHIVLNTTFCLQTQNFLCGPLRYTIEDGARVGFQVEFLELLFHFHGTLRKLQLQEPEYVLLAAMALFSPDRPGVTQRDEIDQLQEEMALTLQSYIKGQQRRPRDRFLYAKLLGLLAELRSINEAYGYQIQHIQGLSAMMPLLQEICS

[4] = molecular target: T4, mouse CAR (mCAR) (Mus musculus, UniProt O35627)
T4 sequence (O35627 1-358): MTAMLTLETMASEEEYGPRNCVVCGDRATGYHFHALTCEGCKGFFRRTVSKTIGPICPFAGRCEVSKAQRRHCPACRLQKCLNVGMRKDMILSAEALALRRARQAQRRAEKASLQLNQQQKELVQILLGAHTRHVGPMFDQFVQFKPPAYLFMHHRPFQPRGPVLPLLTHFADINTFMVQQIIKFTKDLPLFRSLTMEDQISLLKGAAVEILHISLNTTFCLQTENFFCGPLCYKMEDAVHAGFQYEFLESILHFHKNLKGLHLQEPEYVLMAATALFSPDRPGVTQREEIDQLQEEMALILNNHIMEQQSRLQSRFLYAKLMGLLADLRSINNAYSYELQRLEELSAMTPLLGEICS

[5] = molecular target: T4, mouse CAR (mCAR); test: in vitro
[6] = molecular target: T3, human CAR (hCAR); test: cell-based
[7] = molecular target: T3, human CAR (hCAR); test: in vitro
[8] = CV-1 cells, PB tested at 0.5 mM (high concentrations)
[9] = read-out: EC50 values for activation/deactivation of CAR, mCAR, transfected CV-1 cells, 0.0001 μM to 10 μM in half-log steps, EC50 given only for ≧ 2-fold activation or deactivation relative to basal activity

Structure (SMILES) | competition with [3H]clotrimazole for binding to hCAR (in words) [2] | effect on mCAR reporter activity (in words) ([4]; CV-1 cells, screened at 10 μM) | EC50 at 24 h [5] [µM] | effect on hCAR reporter activity (in words) ([3]; CV-1 cells, screened at 10 μM) | EC50 [3] [µM] | EC50 [4, 9] [µM] | other results
CC(=O)[C@H]1CC[C@H]2[C@@H]3CC[C@@H]4CC(=O)CC[C@]4(C)[C@H]3CC[C@]12C [5β-pregnane-3,20-dione] | competed efficiently | only weak effects | > 10 | – | – | – | effect on hCAR LBD/SRC-1 interaction (in words) [1]: marked increase in the binding of SRC-1 to hCAR; activation of hCAR ([3]; CV-1 cells, relative to basal activity): ~2 fold; EC50 [6]: 0.67 µM
CCC1(c2ccccc2)C(=O)NC(=O)NC1=O [PB, phenobarbital] | – | – | – | – | – | – | effect on hCAR reporter activity (in words) [3, 8]: weak but reproducible deactivation; also recorded: deactivated hCAR; effect on mCAR reporter activity (in words) [4, 8]: weak but reproducible deactivation
CC#C[C@]1(O)CC[C@H]2[C@@H]3CCC4=CC(=O)CCC4=C3[C@@H](c3ccc(N(C)C)cc3)C[C@@]21C [RU486] | – | – | > 10 | – | – | – | EC50 at 24 h [7]: > 10 µM
CCOP(=O)(OCC)C(=Cc1cc(C(C)(C)C)c(O)c(C(C)(C)C)c1)P(=O)(OCC)OCC [SR12813] | did not compete | little or no effect | – | little or no effect; also recorded: little or no activity | > 10 | > 10 | –
Clc1cnc(Oc2ccc(Oc3ncc(Cl)cc3Cl)cc2)c(Cl)c1 [TCPOBOP, 1,4-bis[2-(3,5-dichloropyridyloxy)]benzene] | did not compete | efficacious activator of mCAR | – | virtually no activity; also recorded: little or no activity | > 10 | 0.1 | EC50 ([4]; read-out: EC50 for activation of mCAR, CV-1 cells): ~0.1 µM
C[C@@]12CCC[C@H]1[C@@H]1CC[C@H]3C[C@@H](O)CC[C@]3(C)[C@H]1CC2 [androstanol] | competed efficiently | efficacious deactivator of mCAR | – | deactivated hCAR, though the effect was not nearly as pronounced as on mCAR | > 10 | 0.84 | effect on hCAR LBD/SRC-1 interaction (in words) [1]: disrupted this interaction
Clc1ccccc1C(c1ccccc1)(c1ccccc1)n1ccnc1 [clotrimazole] | – | – | – | efficacious deactivator of hCAR | – | – | –
C[C@@H]1C[C@H]2[C@@H]3CCC4=CC(=O)C=C[C@]4(C)[C@@]3(F)[C@@H](O)C[C@]2(C)[C@@]1(O)C(=O)CO [dexamethasone] | – | – | > 10 | – | – | – | EC50 at 24 h [7]: > 10 µM

From patent US6579686B2, “Constitutive androstane receptor” (SmithKline Beecham Corporation, priority 2000, dated 2003)
